Laboratory results taken from the NIST ThermoML archive (doi:10.1016/j.jct.2014.02.021).
“And” between values parts separate entries of the source, which are not always exact repeats. Equal entries are not always repeated.

Key:
[1] = 298.15 K; 101 kPa; Liquid; Vibrating tube method
[2] = xn = mol fraction of the nth substance listed; conditions: 298.15 K, 101 kPa, Liquid, Vibrating tube method

CC1COC(=O)O1 (configuration not stated) [4-methyl-1,3-dioxolan-2-one]
Conditions	mass density [kg/m3]
[1]	1199.49

CC1COC(=O)O1 (configuration not stated) [4-methyl-1,3-dioxolan-2-one] + CO
[2]
Conditions	mass density [kg/m3]
x1 = 0.0484	828.25
x1 = 0.0497	828.25
x1 = 0.051	829.62
x1 = 0.0987	871.34
x1 = 0.0991	870.05
x1 = 0.0999	869.111
x1 = 0.1972	932.83
x1 = 0.1991	936.46
x1 = 0.2001	939.29
x1 = 0.3942	1035.57
x1 = 0.3998	1021.45
x1 = 0.4001	1037.34
x1 = 0.4998	1069.62
x1 = 0.5022	1072.85
x1 = 0.505	1072.84
x1 = 0.598	1103.43
x1 = 0.6017	1106.39
x1 = 0.6049	1103.9
x1 = 0.7939	1159.25
x1 = 0.7979	1159.25
x1 = 0.8009	1158.72
x1 = 0.9	1179.23
x1 = 0.9011	1179.68
x1 = 0.9031	1179.23
x1 = 1	1199.49

CC#N [acetonitrile]
Conditions	mass density [kg/m3]
[1]	776.615

CC#N [acetonitrile] + CO
[2]
Conditions	mass density
x1 = 0.0992	787.14 kg/m3
x1 = 0.1002	787.104 kg/m3
x1 = 0.1075	787.149 kg/m3
x1 = 0.197	786.692 kg/m3
x1 = 0.1984	786.63 kg/m3
x1 = 0.2008	786.647 kg/m3
x1 = 0.4002	784.701 kg/m3
x1 = 0.4004	784.66 kg/m3
x1 = 0.4013	784.644 kg/m3
x1 = 0.465	784.22 kg/m3
x1 = 0.4653	784.25 kg/m3
x1 = 0.5041	783.427 kg/m3
x1 = 0.5042	783.347 kg/m3
x1 = 0.5047	783.356 kg/m3
x1 = 0.601	782.103 kg/m3 and 782.009 kg/m3
x1 = 0.6056	781.935 kg/m3
x1 = 0.7992	779.248 kg/m3
x1 = 0.8012	779.292 kg/m3
x1 = 0.8067	779.242 kg/m3
x1 = 0.9007	777.825 kg/m3
x1 = 0.9044	777.935 kg/m3
x1 = 0.9049	777.896 kg/m3
x1 = 0.9358	777.391 kg/m3
x1 = 0.9376	777.347 kg/m3
x1 = 0.9382	777.385 kg/m3
x1 = 1	776.615 kg/m3

CN(C)C=O [dimethylformamide]
Conditions	mass density [kg/m3]
[1]	943.974

CN(C)C=O [dimethylformamide] + CO
[2]
Conditions	mass density
x1 = 0.0496	803.451 kg/m3
x1 = 0.0502	803.39 kg/m3
x1 = 0.0511	803.056 kg/m3
x1 = 0.0991	818.484 kg/m3
x1 = 0.1021	818.46 kg/m3
x1 = 0.1084	818.189 kg/m3
x1 = 0.1981	843.566 kg/m3
x1 = 0.1988	843.761 kg/m3
x1 = 0.2004	843 kg/m3
x1 = 0.4022	882.138 kg/m3 and 881.976 kg/m3
x1 = 0.4054	881.38 kg/m3
x1 = 0.4986	896.174 kg/m3
x1 = 0.5002	894.978 kg/m3
x1 = 0.5013	896.278 kg/m3
x1 = 0.5982	909.277 kg/m3
x1 = 0.6008	908.588 kg/m3
x1 = 0.6031	909.254 kg/m3
x1 = 0.7998	928.355 kg/m3
x1 = 0.8028	928.308 kg/m3
x1 = 0.8054	928.317 kg/m3
x1 = 0.8997	936.786 kg/m3
x1 = 0.9033	936.655 kg/m3
x1 = 0.9039	936.718 kg/m3
x1 = 1	943.974 kg/m3

CO [methanol]
Conditions	mass density [kg/m3]
[1]	786.58

CO [methanol] + CC1COC(=O)O1
Conditions	mass density [kg/m3]
[2], x2 = 0	786.58

CO [methanol] + CC#N
Conditions	mass density [kg/m3]
[2], x2 = 0	786.58

CO [methanol] + CN(C)C=O
Conditions	mass density [kg/m3]
[2], x2 = 0	786.58
